Assay results as given in the NIST ThermoML archive (doi:10.1021/je300175w).
Values joined by “and” are separate entries in the source; they are usually repeats but may differ in a detail not shown here. Equal values may be shown once.

Assay: mn = molality of the nth substance listed, in mol/kg
Details: 101 kPa, Liquid, Sing-around technique in a fixed-path interferometer

CC(C)(C)CO [2,2-dimethyl-1-propanol] + O
speed of sound
Details | 278.15 K | 283.15 K | 288.15 K | 293.15 K | 298.15 K | 308.15 K | 318.15 K
m1 = 0.0485 | 1430.2 m/s | 1452.5 m/s | 1470.7 m/s | 1486.8 m/s | 1500.7 m/s | 1523.3 m/s and 1523.1 m/s | 1539.1 m/s and 1539.2 m/s
m1 = 0.09995 | 1434.4 m/s | 1457.9 m/s and 1458 m/s | 1475.7 m/s | 1491.3 m/s | 1504.9 m/s | 1526.6 m/s and 1526.4 m/s | 1541.8 m/s
m1 = 0.1472 | 1438.2 m/s and 1438.1 m/s | 1463 m/s and 1462.9 m/s | 1480.2 m/s | 1495.5 m/s | 1508.7 m/s | 1529.7 m/s and 1529.5 m/s | 1544.3 m/s and 1544.2 m/s
m1 = 0.1999 | 1442.3 m/s | 1468.5 m/s and 1468.4 m/s | 1485.2 m/s | 1500 m/s | 1512.8 m/s | 1532.9 m/s | 1546.9 m/s

CCC(CO)(CO)CO [2-ethyl-2-(hydroxymethyl)-1,3-propanediol] + O
speed of sound
Details | 278.15 K | 283.15 K | 288.15 K | 293.15 K | 298.15 K | 308.15 K | 318.15 K
m1 = 0.09974 | 1436 m/s and 1436.1 m/s | 1456.4 m/s and 1456.5 m/s | 1474.5 m/s | 1490.3 m/s | 1504.1 m/s | 1526.5 m/s and 1526.2 m/s | 1542.2 m/s and 1542 m/s
m1 = 0.1998 | 1445.7 m/s | 1465.3 m/s and 1465.4 m/s | 1482.8 m/s | 1498 m/s | 1511.3 m/s | 1532.7 m/s and 1532.4 m/s | 1547.6 m/s and 1547.4 m/s
m1 = 0.3 | 1455.1 m/s | 1474.1 m/s | 1490.9 m/s | 1505.6 m/s | 1518.3 m/s | 1538.9 m/s and 1538.5 m/s | 1552.8 m/s and 1552.7 m/s
m1 = 0.3961 | 1464 m/s | 1482.3 m/s and 1482.4 m/s | 1498.5 m/s | 1512.7 m/s | 1524.9 m/s | 1544.6 m/s and 1544.3 m/s | 1557.4 m/s and 1557.6 m/s
m1 = 0.5048 | 1473.8 m/s | 1491.4 m/s | 1507 m/s | 1520.5 m/s | 1532.2 m/s | 1550.9 m/s and 1550.5 m/s | 1562.8 m/s and 1563 m/s
